Like-named read-outs stand apart in the source and are kept apart here.
How the values were obtained:
[1] = system: adjuvant-induced arthritis in rats; assay: Established Adjuvant-Induced Arthritis in Rats; format: in vivo, rat (male Charles River Lewis); settings: for ED50: 24 h, read-out: Adjuvant Arthritis ED50 (effective dose for 50% decrease from control paw volume)
[2] = system: phenylquinone writhing in mice; assay: Phenylquinone Writhing Test (analgesic activity); format: in vivo, mouse (female white mice); settings: read-out: Phenylquinone Writhing (PQW) ED50 (effective analgesic dose for 50% of the mice)
Procedure: Phenylquinone Writhing Test
A test compound suspended in 1% methylcellulose was given orally to fasted (17-21 hours) female white mice, 5-20 animals per double blind test. Aqueous (0.01% phenyl-p-benzoquinone) phenylquinone, 0.20 ml per mouse, was injected intraperitoneally 6 minutes before observations were begun.

[3] = mouse, oral, phenylquinone i.p. 6 minutes before 10 minutes observation
[4] = rat, oral gavage, 7 daily doses, paw volume one day after last dose

SMILES | ED50 ([1]; Rattus norvegicus, po) | ED50 [2, 3] | ED50 [1, 4] | percent reduction in paw volume at the indicated dose ([1]; rat, oral gavage, 7 daily doses, at 45 mg/kg) | ED50 ([2]; Mus musculus, po)
CC(=O)Oc1ccccc1C(=O)O [Aspirin, reference compound] | 305 mg/kg | – | – | – | –
COc1ccc(-c2cc(C)sc2-c2ccc(OC)cc2)cc1 [Example 1, 5-Methyl-2,3-bis(4-methoxyphenyl)thiophene] | – | 78 mg/kg | 60 mg/kg | – | –
CCC(C)c1cc(-c2ccc(OC)cc2)c(-c2ccc(OC)cc2)s1 (stereo not drawn) [Example 2, 5-(1-Methylpropyl)-2,3-bis(4-methoxyphenyl)thiophene] | – | 5.5 mg/kg | 29 mg/kg | – | –
COc1ccc(-c2cc(C3CCCCC3)sc2-c2ccc(OC)cc2)cc1 [Example 3, 5-Cyclohexyl-2,3-bis(4-methoxyphenyl)thiophene] | – | 47 mg/kg | – | 34% | –
COc1ccc(-c2cc(C(C)(C)C)sc2-c2ccc(OC)cc2)cc1 [Example 4, 5-(1,1-Dimethylethyl)-2,3-bis(4-methoxyphenyl)thiophene] | – | 1.4 mg/kg | 36 mg/kg | – | –
CC(C)Cc1ccc(C(C)C(=O)O)cc1 (stereo not drawn) [Ibuprofen, reference compound] | – | 10 mg/kg | 100 mg/kg | – | –
COc1ccc2c(c1)c(CC(=O)O)c(C)n2C(=O)c1ccc(Cl)cc1 [Indomethacin, reference compound] | 0.3 mg/kg | – | – | – | 0.35 mg/kg
CCCCC1C(=O)N(c2ccccc2)N(c2ccccc2)C1=O [Phenylbutazone, reference compound] | – | 80 mg/kg | 10 mg/kg | – | –
